Laboratory results taken from patent US10968186B2, “Ascochlorin derivative and use thereof as AMPK activator” (priority 2016, dated 2021).
≈ marks a conversion by molar mass, not a printed value. Each block holds one compound with its values, some of them ahead of it.

How the values were obtained:
HT29 = assay: Anti-proliferative activity, CellTiterGlo assay, HT29; format: cell-based; conditions: Homo sapiens, HT-29; HT29, 96 hrs incubation; read-out: Antiproliferative activities IC50, HT29
Method: (§1) The anti-proliferative activities of the compounds against 6 human cancer cell lines were determined by CellTiterGlo assay kit. All cells were obtained from ATCC and cultured as recommended by the vendor. Cells were assayed in exponential growth phase. Sample solution was prepared by 3-fold serial dilution from 30 mM stock for 10 doses in DMSO. Antiproliferative activities were measured by CellTiterGlo assay kit according to the protocol after cells were incubated for 96 hrs in a 37° C., 5% CO2 incubator.
(§2) On the 4th day of incubation, i) 15 μl reagent (CelltiterGlo assay kit) was added per well and plate was shaken (avoiding light) for 2 mins on a plate shaker, ii) the plate was kept (avoiding light) in room temperature for 30 min, and iii) the luminescence value was recorded by Multiplate reader.

MDA-MB-231 = assay: Anti-proliferative activity, CellTiterGlo assay, MDA-MB-231; format: cell-based; conditions: Homo sapiens; MDA-MB-231, 96 hrs incubation; read-out: Antiproliferative activities IC50, MDA-MB-231
Method: as §1, §2

U87-MG = assay: Anti-proliferative activity, CellTiterGlo assay, U87-MG; format: cell-based; conditions: Homo sapiens, U-87 MG, 96 hrs incubation, read-out: Antiproliferative activities IC50, U87-MG
Method: as §1, §2

[1] = tested on: Hep3B human liver cancer xenograft; assay: Antitumor activity in Hep3B human liver cancer xenograft model; format: in vivo, BALB/c nude mice; conditions: po 200 mg/kg once daily 5 days then 100 mg/kg 10 days; alone or in combination of sorafenib (80 mg/kg)
Method: Antitumor Activity of Compound 5 (po, qd×14) in Hep3B Human Liver Cancer Xenograft Model in BALB/c Nude Mice: Single Agent and Combination With Sorafenib
Each mouse was inoculated subcutaneously on the right flank with Hep3B tumor cells (5×106) in 0.1 ml of MEM-Matrigel mixture (1:1 ratio) for tumor development. The treatment started when the mean tumor size reached approximately 137 mm^3. Mice were then randomized into groups.
Compound 5 was dissolved in the vehicle (95% v/v PEG400+5% Tween 80) and orally administered to the tumor-bearing mice with 200 mg/kg, once daily for the first 5 days, followed by treatment with 100 mg/kg for 10 days.

A549 = assay: Anti-proliferative activity, CellTiterGlo assay, A549; format: cell-based; conditions: Homo sapiens; A549, 96 hrs incubation; read-out: Antiproliferative activities IC50, A549
Method: as §1, §2

LNCaP = assay: Anti-proliferative activity, CellTiterGlo assay, LNCaP; format: cell-based; conditions: Homo sapiens, 96 hrs incubation, read-out: Antiproliferative activities IC50, LNCaP
Method: as §1, §2

[2] = Stability against mouse liver microsomes; format: in vitro ADME; conditions: mouse LM, 2 μM compound, 60 min, NADPH
Method: (§3) Determination of Stability Against Mouse and Human Mirosomes
(§4) Pooled human liver microsomes (Cat. 452161; Lot. 23418) were purchased from Corning and pooled male mouse liver microsomes (Cat. M1000; Lot. 1210302) were purchased from Xenotech. Microsomes were stored at −80° C. prior to use. 40 μL of ultra-pure H2O was used instead of NADPH solution in the negative control. The negative control was used to exclude the misleading factor that was resulted from instability of chemical itself. Samples with NADPH were prepared in duplicate. Negative controls were prepared in singlet.
(§5) The reaction was started with the addition of 4 μL of 200 μM compound solution to each master solution to get the final concentration of 2 μM. Verapamil was used as positive control in the assay. Aliquots of 50 μL were taken from the reaction solution at 0, 15, 30, 45 and 60 min. The reaction was stopped by addition of 4 volumes of cold acetonitrile with IS (200 nM imipramine, 200 nM labetalol and 2 μM ketoprofen). Samples were centrifuged at 3,220 g for 40 minutes. Aliquot of […] of the supernatant was mixed with 90 μL of ultra-pure H2O and then was used for LC-MS/MS analysis. Results are shown in Table 3 by indicating remaining % of the test compound after 60 minutes incubation with liver microsomes from human and mouse in the presence of NADPH.

[3] = Stability against human liver microsomes; format: in vitro ADME; conditions: 2 μM compound
Method: as §3, §4, §5

BxPC-3 = assay: Anti-proliferative activity, CellTiterGlo assay, BxPC-3; format: cell-based; conditions: Homo sapiens; BxPC-3, 96 hrs incubation; read-out: Antiproliferative activities IC50, BxPC-3
Method: as §1, §2

[4] = Solubility in pH4.0 and pH7.4 phosphate buffer solution; format: physicochemical; conditions: 2 hr incubation, 25° C.
Method: 1) Preparation of Stock Solutions
Diclofenac was used as positive control in the assay.
2) Procedures for Solubility Determination
This study was performed in duplicate. […] The filtered samples were diluted with methanol.
3) Samples Analyzed by LC-MS/MS

[5] = Stability in acidic pH phosphate buffer solution (hydrolysis to MAC); format: physicochemical; conditions: room temperature
Excerpt: Therefore, the Schiff base derivatives of MAC have the same problem in the metabolic stability as the parent compound, MAC.

melting point: 158 to 160 °C
Compound: COc1c(Cl)c(C)c(C=O)c(O)c1C/C=C(C)/C=C/[C@@]1(C)[C@H](C)CC/C(=N\O)[C@@H]1C [Compound 2, 3-chloro-6-hydroxy-5-[(2E,4E)-5-[(1R,2R,3E,6R)-3-(hydroxyimino)-1,2,6-trimethylcyclohexyl]-3-methylpenta-2,4-dien-1-yl]-4-methoxy-2-methylbenzaldehyde]

IC50 (HT29): 2.8 µM
IC50 (MDA-MB-231): 2.6 µM
IC50 (U87-MG): 5.5 µM
IC50 (A549): 2.7 µM
IC50 (LNCaP): 1.8 µM
Liver microsome stability remaining % after 60 min incubation with NADPH, mouse LM [2]: 88%
Liver microsome stability remaining % after 60 min incubation with NADPH, human LM [3]: 86%
IC50 (BxPC-3): 3.2 µM
Compound: CC(/C=C/[C@@]1(C)[C@H](C)CC/C(=N\O)[C@@H]1C)=C\Cc1c(O)c(C=O)c(C)c(Cl)c1OCF [Compound 5, 3-chloro-4-(fluoromethoxy)-6-hydroxy-5-[(2E,4E)-5-[(1R,2R,3E,6R)-3-(hydroxyimino)-1,2,6-trimethylcyclohexyl]-3-methylpenta-2,4-dien-1-yl]-2-methylbenzaldehyde]
effect to reduce the proliferation of the liver cancer cells (tumor size) [1]: significant effect

Solubility, pH 4.0 PBS ([4]; pH 4.0 phosphate buffer solution): converted to MAC
solubility at 2 h ([4]; pH 7.4 phosphate buffer solution, read-out: Solubility, pH 7.4 PBS): 0.02 µM (≈ 9.5 ng/mL)
hydrolysis to MAC at pH 4.0 phosphate buffer solution [5]: almost instantly hydrolyzed to MAC
Compound: COc1c(Cl)c(C)c(C=NCC(N)=O)c(O)c1C/C=C(C)/C=C/[C@@]1(C)[C@H](C)CCC(=O)[C@@H]1C [compound #13 in WO2004/074236, reference compound]
